Measured values as given in publication PMC10054553, “Development of the First ^18F-Labeled Radiohybrid-Based Minigastrin Derivative with High Target Affinity and Tumor Accumulation by Substitution of the Chelating Moiety” (Pharmaceutics, 2023).

Legend:
[1] = Lipophilicity (logD7.4), n-octanol/PBS pH 7.4; type: physicochemical
Experimental: Cell-based experiments and determination of lipophilicity (logD7.4) were performed as previously published. A detailed description of the in vitro experiments is provided in the Supplementary Materials.
Cell Culture. CCK-2R-expressing rat pancreatic cancer cells AR42J (CLS GmbH, Eppelheim, Germany) were cultivated in monolayers in CELLSTAR® cell culture flasks acquired from Greiner Bio-One GmbH (Frickenhausen, Germany) at 37°C in a humidified atmosphere (5% CO2) using a HERAcell 150i-Incubator (Thermo Fisher Scientific Inc., Waltham, United States). The nutrient medium RPMI 1640 medium, supplemented with 5 mM L-Gln 5 mL non-essential amino acids (100×) and 10% FCS, was used. Furthermore, a Dulbecco’s PBS solution with 0.1% EDTA (v/v) was applied to detach the cells for cell passaging. The detached cells were counted using a Neubauer hemocytometer (Paul Marienfeld, Lauda-Königshofen, Germany). In addition, all operations under sterile conditions were accomplished using a MSC-Advantage safety workbench (Thermo Fisher Scientific Inc., Waltham, United States).
Determination of IC50. AR42J cells (2.0 × 10^5 cells/well) were seeded into 24-well plates 24 ± 2 h prior to testing using 1 mL of nutrient medium (RPMI 1640, 5 mM L-Gln, 5 mL non-essential amino acids (100×), 10% FCS). Cells were incubated at 37°C in a humidified atmosphere (5% CO2).
After the removal of the medium, each well was washed with 500 μL PBS. For the cell-based assay, 200 μL of the nutrient medium (+5% BSA), [ 177Lu]Lu-DOTA-PP-F11N (25 μL, 0.3 pmol) as a radiolabeled reference and 25 μL of the peptide of interest in increasing concentrations (10 −10 to 10−4 M) were added to the cells in triplicate. Thereafter, the assay was incubated for 3 h at 37°C and the supernatant was collected. The cells were washed with 300 μL PBS and the collected supernatant fractions were unified.
After lysis of the cells with NaOH (300 μL, 1 N) for 15 min, the respective wells were washed with NaOH (300 μ L, 1 N) and both fractions were unified. The radioactivity of both the supernatant and the lysed fractions were quantified using a γ-counter (PerkinElmer Inc., Waltham, United States). The obtained data were evaluated via the GraphPad PRISM software (GraphPad Software Inc., La Jolla, United States), which calculates the half-maximal inhibitory concentration (IC50) of the peptides.
Internalization Studies. For the determination of the internalization kinetics of the various peptides, AR42J cells (3.0 × 10^5 cells/well) were seeded into polylysine-coated 24-well plates, adding 1 mL of nutrient medium. Afterwards, the cells were incubated for 24 ± 2 h at 37°C in a humidified atmosphere […]
On the day of the experiment, the medium was removed, and each well was washed with nutrient medium (300 μL). Afterwards 200 μL of nutrient medium, 25 μL of the 177Lu-labeled peptide (0.3 pmol, n = 6) and either 25 μL of nutrient medium for internalization studies ( n = 3) or 25 μL of [natLu]Lu-DOTA-PP-F11N (10 μmol) for competition studies ( n = 3) were added. Thereafter, the assay was incubated for various time points (1, 2, 4 and 6 h) at 37°C in a humidified atmosphere (5% CO2). After incubation, the cells were put on ice for at least 1 min to stop internalization kinetics and the supernatant was collected. Then, the cells were washed with an ice-cold nutrient medium (300 μL) and both fractions were unified. […] The radioactivity of the supernatant, the acid wash and the lysed fractions were quantified using a γ-counter. […]

[2] = Stability studies in human serum; type: in vitro ADME; conditions: 37 °C, 24 h; for Intact peptide (%): n = 3, 1440 min; for SiOH-containing analog (%): n = 3, analog with hydrolyzed SiFA moiety
Experimental: In vitro stability studies in human serum after incubation at 37 °C for 24 h were performed as described in the Supplemental Material.
Stability Studies in Human Serum. The 177Lu- as well as 67Ga-labeled CCK-2R ligands (1 nmol,
approx. 5 MBq) were incubated for 24 h in human serum (200 μL) at 37 °C. After incubation, ice-cold
EtOH (125 μL) and MeCN (375 μL) were added and the suspension was centrifuged for 5 min at
5000 rpm. Then, the supernatant was transferred into new vials and centrifuged for another 5 min at
5000 rpm. After separating the precipitate from the solution, the stability of the ligands was determined

[3] = tested on: AR42J tumor-bearing CB17-SCID mice; experiment: Biodistribution in AR42J tumor-bearing CB17-SCID mice; type: in vivo; conditions: 24 h p.i.
Experimental: All animal experiments were conducted in accordance with general animal welfare regulations in Germany (German animal protection act, in the edition of the announcement, dated 18 May 2006, as amended by Article 280 of 19 June 2020, approval no. ROB-55.2-1-2532.Vet_02-18-109 by the General Administration of Upper Bavaria) and the institutional guidelines for the care and use of animals. CB17-SCID mice of both genders and aged 2–12 months (Charles River Laboratories International Inc., Sulzfeld, Germany) were allowed to acclimate at the in-house animal facility for at least one week before inoculation was performed. Tumor xenografts were established as previously reported. Exclusion criteria for animals from an experiment were either weight loss higher than 20%, a tumor size above 1500 mm^3, an ulceration of the tumor, respiratory distress or a change of behavior. None of these criteria applied to any animal from the experiment. Neither randomization nor blinding was applied in the allocation of the experiments. Health status is SPF according to FELASA recommendation.
Biodistribution studies (n = 4) and µSPECT/CT as well as µPET/CT imaging (using a MILabs VECTor^4 small-animal SPECT/PET/OI/CT device, MILabs, Utrecht, The Netherlands) at 1 and 24 h p.i. were carried out as previously published. For all ^177Lu-labeled compounds, approximately 2–3 MBq (100 pmol)—and for the ^18F-labeled analog, approximately 7 MBq (100 pmol)—were administered. For all competition studies, 2.90 mg/kg (40 nmol) of [^natLu]Lu-DOTA-MGS5 (10^−3 M in phosphate-buffered saline) were co-administered.

[4] = 100 pmol co-injected with DOTA-MGS5 (40 nmol), n = 2

SMILES | logD7.4 ([1]; n-octanol/PBS pH 7.4) | Intact peptide (%) [2] | SiOH-containing analog (%) [2] | fold enhanced kidney values compared to [177Lu]Lu-DOTA-PP-F11N [3] | fold higher tumor uptake compared to [177Lu]Lu-DOTA-PP-F11N [3] | Pancreas activity, competition studies [3, 4] | Stomach activity, competition studies [3, 4] | Tumor activity, competition studies [3, 4] | Kidney activity ([3]; 100 pmol, n = 4) | Pancreas activity ([3]; 100 pmol, n = 4) | Stomach activity ([3]; 100 pmol, n = 4) | Tumor activity ([3]; 100 pmol, n = 4, AR42J tumor) | fold higher tumor uptake compared to (R)-DOTAGA derivative ([3]; b47: versus [177Lu]Lu-(R)-DOTAGA-rhCCK-16) | logD ([1]; pH 7.4, n-octanol/PBS pH 7.4, read-out: logD7.4) | SiOH-containing analog (%) ([2]; listed as [177Lu]Lu-DOTA-rhCCK-16)
CCCC[C@H](NC(=O)[C@H](Cc1c[nH]c2ccccc12)NC(=O)CNC(=O)[C@H](Cc1ccc(O)cc1)NC(=O)[C@H](C)NC(=O)CC[C@@H](NC(=O)CC[C@@H](NC(=O)CC[C@@H](NC(=O)CC[C@@H](NC(=O)CC[C@@H](NC(=O)CC[C@@H](NC(=O)CC[C@@H](NC(=O)CC[C@@H](NC(=O)[C@@H](CNC(=O)c1ccc([Si](F)(C(C)(C)C)C(C)(C)C)cc1)NC(=O)CN1CCN(CC(=O)O)CCN(CC(=O)O)CCN(CC(=O)O)CC1)C(=O)O)C(=O)O)C(=O)O)C(=O)O)C(=O)O)C(=O)O)C(=O)O)C(=O)O)C(=O)N[C@@H](CC(=O)O)C(=O)N[C@@H](Cc1ccccc1)C(N)=O [[^19F]F-[^177Lu]Lu-DOTA-rhCCK-18] [metal not drawn] | −2.69 ± 0.06 | 25.3 ± 3.1% | 67.7 ± 3.1% | 40 fold | 13 fold | 0.22 ± 0.02 %ID/g | < 2 %ID/g | < 2 %ID/g | 134 ± 18 %ID/g | 0.34 ± 0.09 %ID/g | 4.28 ± 1.05 %ID/g | 25.4 ± 4.7 %ID/g | 1.5 fold |  | 
CCCC[C@H](NC(=O)[C@H](Cc1c[nH]c2ccccc12)NC(=O)CNC(=O)[C@H](Cc1ccc(O)cc1)NC(=O)[C@H](C)NC(=O)CC[C@@H](NC(=O)CC[C@@H](NC(=O)CC[C@@H](NC(=O)CC[C@@H](NC(=O)CC[C@@H](NC(=O)CC[C@@H](NC(=O)[C@@H](CNC(=O)c1ccc([Si](F)(C(C)(C)C)C(C)(C)C)cc1)NC(=O)CN1CCN(CC(=O)O)CCN(CC(=O)O)CCN(CC(=O)O)CC1)C(=O)O)C(=O)O)C(=O)O)C(=O)O)C(=O)O)C(=O)O)C(=O)N[C@@H](CC(=O)O)C(=O)N[C@@H](Cc1ccccc1)C(N)=O [[^177Lu]Lu-DOTA-rhCCK-16, metal not drawn] |  | 21.8 ± 0.8% |  |  |  |  |  |  |  |  |  |  |  | -2.7 ± 0.09 | 69.1 ± 1.0%
